Data: ChEMBL document CHEMBL2074396, “Functional characterization of the rat multispecific organic anion transporter OAT1 mediating basolateral uptake of anionic drugs in the kidney” (FEBS Lett, 1998)

Tests used:
[1] = biological target: T1, Solute carrier family 22 member 6 (Rattus norvegicus, UniProt O35956); assay: TP_TRANSPORTER: uptake in Xenopus laevis oocytes; format: functional, cell-based; details: oocyte
T1 sequence (O35956 whole entry): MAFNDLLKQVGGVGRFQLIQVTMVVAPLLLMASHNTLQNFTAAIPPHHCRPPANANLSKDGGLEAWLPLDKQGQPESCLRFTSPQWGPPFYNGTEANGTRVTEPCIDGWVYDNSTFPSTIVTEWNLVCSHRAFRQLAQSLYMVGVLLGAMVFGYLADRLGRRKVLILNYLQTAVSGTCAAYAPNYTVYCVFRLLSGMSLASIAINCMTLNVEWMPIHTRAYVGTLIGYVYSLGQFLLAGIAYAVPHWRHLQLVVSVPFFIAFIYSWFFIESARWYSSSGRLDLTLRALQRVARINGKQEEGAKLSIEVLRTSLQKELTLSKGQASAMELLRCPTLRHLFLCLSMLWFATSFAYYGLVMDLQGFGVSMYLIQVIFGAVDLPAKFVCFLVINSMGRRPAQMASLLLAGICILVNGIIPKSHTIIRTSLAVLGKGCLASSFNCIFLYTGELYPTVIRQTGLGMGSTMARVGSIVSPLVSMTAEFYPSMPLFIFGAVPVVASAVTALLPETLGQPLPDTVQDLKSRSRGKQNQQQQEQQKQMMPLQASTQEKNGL

[2] = biological target: T1, Solute carrier family 22 member 6; assay: TP_TRANSPORTER: inhibition of PAH uptake in Xenopus laevis oocytes; format: functional, cell-based; details: oocyte

Activity [1]	Activity [2]	Compound
substrate [+]	inhibitor [+]	Nc1nc2ncc(CNc3ccc(C(=O)N[C@@H](CCC(=O)O)C(=O)O)cc3)nc2c(=O)[nH]1 [FOLIC ACID]
is not a substrate [-]	–	Cc1c(F)c(N2CCNC(C)C2)cc2c1c(=O)c(C(=O)O)cn2C1CC1 (centres undefined) [GREPAFLOXACIN]
is not a substrate [-]	–	C[C@H]1COc2c(N3CCN(C)CC3)c(F)cc3c(=O)c(C(=O)O)cn1c23.C[C@H]1COc2c(N3CCN(C)CC3)c(F)cc3c(=O)c(C(=O)O)cn1c23.O [LEVOFLOXACIN]
